Test results from patent US20260376293A1, “METHODS FOR STUDYING GPR158 PHARMACOLOGY AND IDENTIFICATION OF ITS LIGANDS” (UNIVERSITY OF FLORIDA RESEARCH FOUNDATION, INCORPORATED, priority 2022, published 2026).

Tested on: layer V pyramidal neurons
Assay: Whole cell recordings, layer V prelimbic cortex neurons, WT mice
Assay type: cell-based, mouse
Conditions: glycine 1 mM
Protocol: FIGS. 15A-15H. Effect of glycine and taurine on excitability of layer V neurons and membrane properties of layer II/III neurons in wild type and GPR158 knockout mice. A) Representative traces of voltage responses to a 200 pA current ramp injection obtained from layer V pyramidal neurons in WT mice under control conditions and during bath application of glycine (1 mM). B) Quantification of glycine effects on neuronal excitability by number of action potentials fired in response to 200 pA current ramp under control condition and glycine application (n=4 neurons/3 mice). Nonparametric t-test; Wilcoxon test, ns=p>0.05. C) Quantification of glycine effects on neuronal excitability by rheobase current under control condition and glycine application (n=4 neurons/3 mice). Nonparametric t-test; Wilcoxon test, ns=p>0.05. […]
Electrophysiological recordings from layer II-III and layer V neurons of the prelimbic cortex were performed with C57Bl6 mice of either sex aged between 6-12 weeks. […] The Rheobase current was defined as the minimum current necessary to elicit the first AP and changes in neuronal excitability were assessed by counting the number of spikes evoked in response to 1-s depolarizing ramp ranging from 0 to 200 pA with a 20-s intertrial interval. […]

**Q.** How did the “intrinsic excitability of layer V neurons” value turn out when NCC(=O)O [glycine] was run?
**A.** The value was “did not produce any changes”.

**Q.** And the resting membrane potential (layer V)?
**A.** The resting membrane potential was “ns”.
